Five compounds from patent publication US11796610B2, “Compositions as molecular tags for hyperpolarization NMR and magnetic resonance and methods of making and using same” (Duke University, priority 2018, dated 2023) can be followed below.

What all share (assay type): physicochemical
Data set [1] is described as follows: Injection and detection with small tip angle (product relaxation lifetime). Conditions: 15° tip angle, 6 consecutive spectra in the magnet, 1.6 s delay. As for the experimental part: In addition to using a 90° pulse-acquire sequence for detection after injection, experiments using small tip angles (15° or 11.25°) were conducted to acquire a series of detection within a short time window (˜10 s), and to use that information to determine the relaxation lifetime of different spin orders of the hyperpolarized product.
FIG. 9, panel a: magnetization of ^15N-enriched tetrazine 1a is first hyperpolarized at 0.4 μT, then a solution of 2 in methanol-d4 is injected (as described in Example 4). Then, the sample is manually transferred as quickly as possible into the magnet, using 15° tip angle to acquire 6 spectra consecutively, with a 1.6 s delay between each acquisition. […] Panel b: singlet spin order of ^15N-enriched tetrazine 1a is first hyperpolarized at 0.3 mT, then a solution of 2 in methanol-d4 is injected (as described in Example 4). Then, the sample is manually transferred as quickly as possible into the magnet, using 11.25° tip angle to acquire 6 spectra consecutively, with a 1.6 s delay between each acquisition. […] Panels c-e: relaxation constant measurements of the hyperpolarized product magnetization, hyperpolarized ^15N2 gas, and hyperpolarized product singlet. The product magnetization has T1 lifetime of ˜6.9 s.

Data set [2] in a line: Hyperpolarization in aqueous media (3:1 methanol-d4:D2O, about 50° C.). How it is done:
One important aspect of our bioorthogonal reaction-promoted hyperpolarization approach is the ability to exploit this scheme using an aqueous solvent, which is critical for many biological reactions and would widely broaden the applicability of this strategy. […] The best results were achieved using a 3:1 methanol-d4:D2O mixture and by elevating the temperature to about 50° C. using a water bath while bubbling para-H2 through the solution.
A solution of 2 was prepared in the same 3:1 methanol-d4:D2O mixed solvent and was injected after the hyperpolarization was established for the precursor tetrazine.

Data set [3] in a line: Hyperpolarization then cycloaddition with cyclooctyne 2: enhancement and lifetime of products. The settings on record: methanol-d4; for signal enhancement over thermal spectra, product anti-phase (singlet) signal: tetrazine scalar order hyperpolarized at 0.3 mT, then 2 injected. An excerpt: For the hyperpolarization of the cycloaddition products 3a and 3b, a solution of tetrazine (1a or 1b, respectively), pyridine, and Ir catalyst in methanol-d4 was first hyperpolarized at 0.4 μT or 0.3 mT, depending on which spin order was studied (solution preparation and hyperpolarization procedure described above in Example 4). After hyperpolarization, the para-H2 gas flow was stopped and the pressure was released through the exhaust outlet, after which the injection valve (shown in FIG. 5) was quickly opened to inject a solution of cyclooctyne 2 (4.5 mM) in methanol-d4 (200 μL) (equiv of tetrazine:2=1.0:1.5). Injection was completed in less than 1 second, and the sample was shaken for 3 seconds to reach complete reaction, visually evidenced by the color change from pink (i.e., the color of the tetrazine) to transparent. The sample was then manually transferred to an 8.5 T spectrometer for product signal read out.
Upon the cycloaddition reaction, a noticeable difference in chemical shift is observed on both nitrogen atoms (i.e., N1 and N2 in 1a vs. N1′ and N2′ in 3a). […] Hyperpolarized 3a and ^15N2 are observed. FIG. 3, panels c, e, and g show representative T1 or Ts decay measurements for product 3a magnetization, 3a singlet order, and 3b singlet order, respectively. […] FIG. 3, panels d, f, and h show lifetime measurement data, exponential fit of the data, and calculated T1 or Ts values for product 3a magnetization, 3a singlet order, and 3b singlet order, respectively. In the hyperpolarization-cycloaddition experiments, para-hydrogen was bubbled into a solution of ^15N4-1,2,4,5-tetrazine 1a or 1b (1.5 mM), pyridine (1.0 mM), and Ir(COD)(IMes)Cl (0.15 mM) in methanol-d4 (400 uL), then a solution of 2 (1.5 equivalents) in methanol-d4 (200 μL) was added. The sample was held at 0.3 mT for a variable amount of time before transport to the magnet for detection.

Data set [4] is described as follows: Dilution effect on hyperpolarization (injection of pure methanol-d4). The settings on record: 200 μL methanol-d4 injected; singlet order at 0.3 mT. How it is done:
To observe the effect of simple dilution on hyperpolarization, pure methanol-d4 was injected into a solution of hyperpolarized tetrazine to obtain a diluted hyperpolarized signal as follows: tetrazine 1a was hyperpolarized singlet order at 0.3 mT and the spectra were acquired (as described in Example 4). The sample was again bubbled with para-H2 for 3 minutes at 0.3 mT, then the pressure was released and the injection valve was opened, after which 200 μL of methanol-d4 was quickly injected and the sample was manually transferred into the magnet to read out the signal (detailed in Example 4, but with the key difference: pure methanol-d4 used instead of a solution of 2 in methanol-d4). […] The signal observed was about half of the signal before addition.

Data set [5] is described as follows: Concentration dependence of tetrazine hyperpolarization (enhancement and lifetime). Conditions: for T1 / Ts: decay at 0.3 mT. How it is done: Using serial dilution, solutions of tetrazine 1a, pyridine, and Ir catalyst in methanol-d4 (400 μL) were prepared at different concentrations, but in the same ratio of each component: • (i) 1a (7.5 mM), pyridine (5.0 mM), and Ir(IMES)(COD)Cl (0.75 mM) • (ii) 1a (3.8 mM), pyridine (2.5 mM), and Ir(IMES)(COD)Cl (0.38 mM) • (iii) 1a (1.5 mM), pyridine (1.0 mM), and Ir(IMES)(COD)Cl (0.15 mM) (i.e., default concentrations of solution used in all other experiments) • (iv) 1a (0.60 mM), pyridine (0.40 mM), and Ir(IMES)(COD)Cl (0.060 mM)
For the rest of this section, samples are referred to by the concentration of tetrazine 1a comprising the solution. As described above, either magnetization or singlet tetrazine hyperpolarization was developed following pre-activation of the catalyst. After bubbling para-H^2 through the sample, the sample was transferred to 0.3 mT for a variable period of time. Following this delay, the sample was transported to the magnet and the spectrum was immediately recorded with a 90° pulse-acquire sequence. Triplet magnetization signal was deconvoluted from singlet signal, and fitted to a single exponential decay. Results are shown below in Table 1 and graphically in FIGS. 6a and 6b.

The nature of data set [6]: SABRE-SHEATH hyperpolarization of 15N4-1,2,4,5-tetrazines in methanol-d4. As for the experimental part:
Unless otherwise described, a solution of ^15N-enriched tetrazine (1a or 1b, 1.5 mM), pyridine (1.0 mM), and Ir(IMes)(COD) Cl (0.15 mM) in methanol-d4 (400 μL) was prepared. Note: IMes=1,3-bis(2,4,6-trimethylphenyl) imidazol-2-ylidene; COD=1,5-cyclooctadiene.
The Ir catalyst was pre-activated by bubbling para-H2 through a solution of tetrazine, pyridine, and Ir catalyst (sample preparation described above) for 30 minutes. Following pre-activation, the tetrazine was hyperpolarized, either magnetization or singlet order.
To hyperpolarize magnetization, the solution was placed inside the magnetic shield, with the magnetic field adjusted to 0.4 μT (using a solenoid of 430 mm with 205 turns and a voltage of 7.5 V across 11.4 kOhms). After 3 minutes' bubbling of para-H2, the gas flow was stopped and the sample was manually transferred from the low field to an 8.5 T spectrometer for signal read out as quickly as possible. This manual transfer takes ˜8 seconds, and a 90° pulse-acquire sequence was used for read out.
To hyperpolarize singlet, the sample was placed at a magnetic field of 0.3 mT and para-H2 was bubbled through the solution for 3 minutes. As described in the above procedure, the sample was then manually transferred to an 8.5 T spectrometer as quickly as possible and detected using a 90° pulse-acquire sequence.
Depending on the magnetic field at which hyperpolarization was induced, in-phase signal (magnetization) or anti-phase signal (singlet) was observed. Enhancement values (ε) and polarization levels (p) were obtained by comparison of the hyperpolarized spectrum to a thermal reference spectrum of the respective ^15N4-1,2,4,5-tetrazine. […] Measurement at 0.3 mT. Sample as a solution of ^15N4-1,2,4,5-tetrazine (1.5 mM), pyridine (1.0 mM), and Ir(COD)(IMes)Cl (0.15 mM) in methanol-d4 (400 uL).
Hyperpolarization of 1a and 1b was examined by standard SABRE-SHEATH procedure, as reported by Theis et al. (“Direct and cost-efficient hyperpolarization of long-lived nuclear spin states on universal ^15N2-diazirine molecular tags,” Sci. Adv. 2, e1501438 (2016)). Two different hyperpolarized states for ^15N4-1,2,4,5-tetrazine 1a were observed, depending upon the chosen magnetic field at which the para-hydrogen gas is applied to the sample (FIG. 2b). At very low magnetic fields (˜0.4 μT), the ^15N spin pairs of the tetrazine are hyperpolarized in the triplet states and display in-phase signal upon detection at 8.45 T (i.e., magnetization is hyperpolarized). Conversely, at a relatively broad range of slightly elevated magnetic fields (˜0.2 mT<B<˜50 mT), anti-phase signals are observed after a 90° pulse. In this case, scalar order is hyperpolarized in the tetrazine spin pairs, associated with singlet states on ^15N-spin pairs; upon transfer to high magnetic field for detection, this scalar order is transformed into anti-aligned magnetization (I⋅S is adiabatically converted to Iz-Sz).

The nature of data set [7]: Kinetic characterization of tetrazine/cyclooctyne reaction. The settings on record: 1.5 mM tetrazine, 1.5 equivalent of 2, CD3OD. As for the experimental part:
Emulating hyperpolarization conditions (below), a 1.5 mM solution of 1c (1 equivalent) in CD3OD (400 μL) was added to an NMR tube. To this solution, a 4.5 mM solution of 2 (1.5 equivalent) in CD3OD (200 μL) was added and the NMR tube was shaken vigorously. Immediately upon addition, the color of the solution changed from pink (due to the pink color of the tetrazine 1c) to colorless. As soon as the pink color completely dissipated (<2 seconds), the sample was placed into the NMR and a spectrum was acquired. The upper trace represents 1c and the lower trace represents 3c, i.e., the product of the cycloaddition reaction.

Where [8] appears, read: tetrazine concentration 0.60 mM.
Setting [9] is: tetrazine concentration 3.75 mM.
Setting [10] is: 3:1 methanol-d4:D2O, about 50° C.
Where [11] appears, read: at 0.3 mT, 1.5 mM in methanol-d4.

In the case of `OC[C@H]1[C@H]2CCc3c(c[15n][15n]c3-c3ccccc3)CC[C@@H]12` (racemic) [3a, (1-Phenyl-6,6a,7,7a,8,9-hexahydro-5H-cyclopropa[5,6]cycloocta[1,2-d]pyridazin-7-yl-2,3-15N2)methanol], the “product magnetization T1 lifetime” value in data set [1] is about 6.9 s. The “hyperpolarized signal from cycloaddition product” value in data set [2] (3:1 CD3OD:D2O, 50° C.) is “detected the hyperpolarized signal”. Further, in data set [3] (held at 0.3 mT), the “lifetime Ts of product” value was found to be 13 ± 2 s and the “magnetization lifetime T1 of product” value was 13 ± 4 s. Also, the “enhancement over thermal spectra, hyperpolarized product magnetization” value in data set [3] (tetrazine magnetization hyperpolarized at 0.4 μT, then 2 added at 0.3 mT) worked out at 540 fold. The “signal enhancement over thermal spectra, product anti-phase (singlet) signal” value in data set [3] is reported as 140 fold.
Turning to `c1ccc(-c2[15n][15n]c[15n][15n]2)cc1` [1a, 3-Phenyl-1,2,4,5-tetrazine-1,2,4,5-^15N4], the “hyperpolarized singlet signal after dilution relative to signal before addition” value in data set [4] is recorded as “about half”. Besides, in data set [5] (setting [8]), the “Singlet enhancement at 0 s delay (normalized to 1.5 mM singlet, %)” value came to 96%; the “Z-Magnetization enhancement at 0 s delay (normalized to 1.5 mM Z-magnetization, %)” value turned out to be 130%; the T1 came out at 74 s; the Ts turned out to be 357 s. In data set [5] (tetrazine concentration 1.5 mM), the “Singlet enhancement at 0 s delay (normalized to 1.5 mM singlet, %)” value was 100%; the “Z-Magnetization enhancement at 0 s delay (normalized to 1.5 mM Z-magnetization, %)” value came out at 100%; the T1 is on record as 91 s; the Ts came to 137 s. Also, in data set [5] (setting [9]), the “Singlet enhancement at 0 s delay (normalized to 1.5 mM singlet, %)” value is 77%; the “Z-Magnetization enhancement at 0 s delay (normalized to 1.5 mM Z-magnetization, %)” value worked out at 86%; the T1 worked out at 72 s; the Ts is reported as 58 s. Also, in data set [5] (tetrazine concentration 7.5 mM), the “Singlet enhancement at 0 s delay (normalized to 1.5 mM singlet, %)” value was 56%; the “Z-Magnetization enhancement at 0 s delay (normalized to 1.5 mM Z-magnetization, %)” value is 66%; the T1 was determined as 47 s; the Ts was 48 s. Besides, in data set [2] (setting [10]), the “enhancement compared to that in neat methanol-d4” value was “about 30%” and the signal enhancement was about 900 fold. Besides, the “lifetime of scalar order relative to magnetization” value in data set [6] (at 0.3 mT) is recorded as “about 2 times”. Moreover, in data set [6] (setting [11]), the “magnetization relaxation constant T1” value was determined as 1.4 ± 0.1 min and the “relaxation constant of the scalar order of the 15N spin pairs, Ts” value is 2.7 ± 0.3 min. Also, the “signal enhancement over 8.45 T thermal measurements” value in data set [6] (tetrazine 1.5 mM, pyridine 1.0 mM, Ir(COD)(IMes)Cl 0.15 mM in methanol-d4) is “up to 3,000 fold”.
As for `[2H]c1[15n][15n]c(-c2ccccc2)[15n][15n]1` [1b, 3-Phenyl-1,2,4,5-tetrazine-6-d-1,2,4,5-^15N4], in data set [6] (setting [11]), the “relaxation constant of the scalar order of the 15N spin pairs, Ts” value was determined as 2.1 ± 0.7 min. Further, in data set [6] (singlet mode, 1.5 mM in methanol-d4), the “enhancement of hyperpolarized scalar order” value is given as 2900 fold. For the same compound, the “hyperpolarized magnetization (T1) obtainable” value in data set [6] (μT fields) is on record as “not possible to create the hyperpolarized magnetization”.
As to `c1ccc(-c2nncnn2)cc1` [1c, 3-Phenyl-1,2,4,5-tetrazine], the “time until pink color completely dissipated on reaction with 2” value in data set [7] was under 2 s.
On to `[2H]c1[15n][15n]c(-c2ccccc2)c2c1CC[C@H]1[C@@H](CO)[C@H]1CC2` [3b, (1-Phenyl-6,6a,7,7a,8,9-hexahydro-5H-cyclopropa[5,6]cycloocta[1,2-d]pyridazin-7-yl-4-d-2,3-^15N2)methanol], for which, in data set [3] (held at 0.3 mT), the “lifetime Ts of product” value came out at 24 ± 6 s. Also, in data set [3], the “signal enhancement over thermal spectra, product anti-phase (singlet) signal” value was found to be 180 fold.
